Marks after values point to notes of the source that are not given here.

Common to all, as to type: physicochemical
Data set [1] is described as follows: Kinetic solubility studies in FaSSIF and FeSSIF. As to conditions: FeSSIF. On the procedure:
The solubility of the dimesylate (Pattern B) and mono-HCl salts of Compound A was determined in FaSSIF (pH 6.5) at 37° C. after a slurry time of 5, 20 and 40 minutes. FaSSIF was warmed to 37° C. and added to a vial of ca. 9 mg of the salt to mark t=0. The mixture was kept stirring at 37° C. and a sample drawn with a syringe at t+5, 20 and 40 minutes. The samples were syringe filtered and the filtrate was diluted 2× to ensure no precipitation while waiting for HPLC analysis. The pH of the solution collected at 40 minutes was measured. The slurry was sampled again the following day and the supernatant from syringe filtration was analyzed directly by HPLC without dilution. The same experiment was run with FeSSIF (pH 5.0).

The nature of data set [2]: Stability of XRPD pattern on drying. The conditions noted are these: for XRPD pattern upon drying: dimesylate. Here is the method: Short term slurries were carried out at two temperatures in 14 solvents. About 25 mg solid was added to a 2 mL vial followed by 0.70 mL of solvent. If all solids dissolved, more solid was added until a slurry was formed within reason. Slurries were stirred at constant temperature for four days (ambient temperature, 21-23° C.; or high temperature, 50° C.). After stirring for four days, solids were allowed to settle and were then recovered for XRPD analysis. XRPD analysis was performed on the wet cake, and if a new pattern was observed, the sample was dried in a vacuum oven at 50° C. for a minimum of 4 hours, then the dried sample was analyzed by XRPD.
Stability on Drying: A sample of Pattern B was prepared on an XRPD sample holder and analysed by XRPD to create a baseline. The disk was then left in a vacuum oven at 50° C. under static vacuum for 3 days. On the third day, the sample was removed from the oven and the “dry” pattern was recorded immediately.
(§1) Compound A⋅2MSA (Pattern A) was slurried in EtOH overnight at room temperature (ca. 16 hours). […] The bulk was dried in a vacuum oven at 50° C. under dynamic vacuum for 4.5 hours. The dried solids were removed from the oven and a “dry” XRPD analysis was collected.

Data set [3] is described as follows: Equilibrium solubility in simulated fluids and water at 37° C. The conditions noted are these: for comments / Concentration: 24 hrs; for Concentration: mg of Compound A (free base); for Concentration / pH (24 hr): dimesylate. On the procedure: The solubility Compound A⋅2MSA, Patterns A, B and I, was measured in water, fasted state simulated gastric fluid (FaSSGF) and fasted state simulated intestinal fluid (FaSSIF) at 37° C. by slurrying in the respective media for 24 hours. 1.5 mL of the fluid was stirred at 37° C. About 5 mg of the specified solid was added to FaSSIF and a thin slurry was immediately formed. As a test, approximately 80 and 60 mg of Pattern A was added to 1.5 mL of water and FaSSGF, respectively without formation of a slurry. Therefore, about 10 mg of the desired Pattern was added to water and FaSSGF solutions. The samples were allowed to stir at 37° C. for 24 hrs. The stir bars were removed from the FaSSIF vials and the solids allowed to settle for 0.5 hours at 37° C. The supernatant/solutions were syringe filtered and recovered for analysis by HPLC as well as for pH measurement.

A short description of data set [4]: Storage at ambient conditions (XRPD). On the procedure:
Characterization after storage under ambient conditions: Pattern B was left at ambient conditions (21-22° C., 10-40% RH) for a week then characterized by)(RFD, TGA/DSC, and water content measured by Karl-Fischer titration. […] The water content was confirmed by KF titration which yielded a value of 4.20 wt. %.
Compound A⋅2MSA (Pattern A, 0.2622 g) was added to a 20 mL vial with a stir bar. Fifteen volumes (3.93 mL) of EtOH was added and the slurry was stirred overnight (˜20 hours). The slurry was sampled to confirm the correct pattern was generated, then the solids were collected by filtration. The resultant yellow solid was dried in a vacuum oven at 50° C. under dynamic vacuum for 2 hours, then under static vacuum overnight (˜16 hours) to yield 0.2015 g (77% yield). The in-situ sample drawn was dried for 3 hours then the solid was used for characterization by solution ^1H-NMR spectroscopy and simultaneous TGA/DSC. The bulk was dried overnight and used for stand-alone DSC, and thermal treatment.
as §1
Compound A⋅2MSA (Pattern A, 0.2659 g) was added to a 20 mL vial with a stir bar. Twenty-five volumes (6.65 mL) of ACN was added and the slurry was stirred overnight (˜20 hours). The slurry was sampled to confirm the correct pattern was generated, then the solids were collected by filtration. The resultant yellow solid was dried in a vacuum oven at 50° C. under dynamic vacuum for 2 hours, then under static vacuum overnight (˜16 hours) to yield 0.2255 g (85% yield). The sample drawn was dried for 3 hours then the solid was used for characterization by solution ^1H-NMR spectroscopy and simultaneous TGA/DSC. The bulk was dried overnight and used for stand-alone DSC.

The nature of data set [5]: Dynamic Vapor Sorption (DVS). As to conditions: between 2% and 95% Relative Humidity (RH); dimesylate. Here is the method: Dynamic Vapor Sorption (DVS) was done using a DVS Intrinsic 1. The sample is loaded into a sample pan and suspended from a microbalance. A typical sample mass for DVS measurement is 25 mg. Nitrogen gas bubbled through distilled water provides the desired relative humidity.
A typical measurement comprises the steps: • 1—Equilibrate at 50% RH • 2-50% to 2%. (50%, 40%, 30%, 20%, 10% and 2%) • a. Hold minimum of 5 mins and maximum of 240 minutes at each humidity. The pass criteria is less than 0.002% change • 3-2% to 95% (2%, 10%, 20%, 30%, 40%, 50%, 60%, 70%, 80%, 90%, 95%) • a. Hold minimum of 5 mins and maximum of 240 minutes at each humidity. The pass criteria is less than 0.002% change • 4-95% to 2% (95%, 80%, 70%, 60%, 50%, 40%, 30%, 20%, 10%, 2%) • a. Hold minimum of 5 mins and maximum of 240 minutes at each humidity. The pass criteria is less than 0.002% change • 5-2% to 50% (2%, 10%, 20%, 30%, 40%, 50%) • a. Hold minimum of 5 mins and maximum of 240 minutes at each humidity. The pass criteria is less than 0.002% change Dynamic Vapor Sorption Isotherm Plots of Solid Forms of Compound A⋅2MSA

The mark [6] stands for this setting: solids from amorphous slurry or antisolvent experiments.
Where [7] appears, read: solids from short term slurries, vacuum oven at 50° C., minimum of 4 hours.

In the case of `CS(=O)(=O)O.CS(=O)(=O)O.N#Cc1cccc(-c2ccc3ncc(-c4cc(F)cc(F)c4)c(N4CCC(N)CC4)c3c2)c1O` [Compound A⋅2MSA, 3-(4-(4-aminopiperidin-1-yl)-3-(3,5-difluorophenyl)quinolin-6-yl)-2-hydroxybenzonitrile dimesylate], the “solubility relative to the HCl salt” value in data set [1] was 12 ×.
Take `CS(=O)(=O)O.CS(=O)(=O)O.N#Cc1cccc(-c2ccc3ncc(-c4cc(F)cc(F)c4)c(N4CCC(N)CC4)c3c2)c1O` [Pattern O, 3-(4-(4-aminopiperidin-1-yl)-3-(3,5-difluorophenyl)quinolin-6-yl)-2-hydroxybenzonitrile dimesylate]: the “XRPD pattern upon drying” value in data set [2] (setting [6]) is recorded as “stable upon drying”.
As to `CS(=O)(=O)O.CS(=O)(=O)O.N#Cc1cccc(-c2ccc3ncc(-c4cc(F)cc(F)c4)c(N4CCC(N)CC4)c3c2)c1O` [Pattern C, 3-(4-(4-aminopiperidin-1-yl)-3-(3,5-difluorophenyl)quinolin-6-yl)-2-hydroxybenzonitrile dimesylate], the comments entry is “dissolved” in data set [3] (FaSSGF (pH 1.70)), “disproportionated” in data set [3] (FaSSIF (pH 6.48)) and “dissolved” in data set [3] (water). Besides, the Concentration in data set [3] (FaSSGF (pH 1.70), above calibration range) is recorded as >7.75^b mg/mL; in data set [3] (FaSSIF (pH 6.48)) it was 0.010 mg/mL; in data set [3] (water, above calibration range), >6.59^b mg/mL. Further, the “pH (24 hr)” value in data set [3] (FaSSGF (pH 1.70)) is recorded as 1.84; in data set [3] (FaSSIF (pH 6.48)) it was 6.06; in data set [3] (water), 3.09. Besides, the “XRPD pattern upon drying” value in data set [2] (setting [7]) was “stable upon drying”. Also, the “XRPD pattern after drying” value in data set [2] (vacuum oven at 50° C. under dynamic vacuum for 4.5 hours) is “a combination of Patterns C and I”. Also, the “XRPD pattern of wet sample left at ambient conditions” value in data set [4] (24 hours) is “did not change”. Also, the “XRPD pattern after storage at ambient conditions” value in data set [4] (bulk, 6 days at ambient conditions, dimesylate) is recorded as “a pattern resembling Pattern I”.
`CS(=O)(=O)O.CS(=O)(=O)O.N#Cc1cccc(-c2ccc3ncc(-c4cc(F)cc(F)c4)c(N4CCC(N)CC4)c3c2)c1O` [Pattern G, 3-(4-(4-aminopiperidin-1-yl)-3-(3,5-difluorophenyl)quinolin-6-yl)-2-hydroxybenzonitrile dimesylate]: the “XRPD pattern upon drying” value in data set [2] (setting [7]) is listed as “converted to Pattern I”.
With `CS(=O)(=O)O.CS(=O)(=O)O.N#Cc1cccc(-c2ccc3ncc(-c4cc(F)cc(F)c4)c(N4CCC(N)CC4)c3c2)c1O` [Pattern A, 3-(4-(4-aminopiperidin-1-yl)-3-(3,5-difluorophenyl)quinolin-6-yl)-2-hydroxybenzonitrile dimesylate], the “amount added to 1.5 mL without formation of a slurry” value is around 60 mg in data set [3] (FaSSGF) and “approximately 80 mg” in data set [3] (water). In addition, the “reversible water uptake (DVS)” value in data set [5] worked out at 9.8 % w/w. Further, the “XRPD pattern upon drying” value in data set [2] (setting [7]) is “stable upon drying”.
On to `CS(=O)(=O)O.CS(=O)(=O)O.N#Cc1cccc(-c2ccc3ncc(-c4cc(F)cc(F)c4)c(N4CCC(N)CC4)c3c2)c1O` [Pattern F, 3-(4-(4-aminopiperidin-1-yl)-3-(3,5-difluorophenyl)quinolin-6-yl)-2-hydroxybenzonitrile dimesylate], for which the “XRPD pattern upon drying” value in data set [2] (setting [7]) is on record as “converted to Pattern I”.
Still for that read-out and setting: to `CS(=O)(=O)O.CS(=O)(=O)O.N#Cc1cccc(-c2ccc3ncc(-c4cc(F)cc(F)c4)c(N4CCC(N)CC4)c3c2)c1O` [Pattern E, 3-(4-(4-aminopiperidin-1-yl)-3-(3,5-difluorophenyl)quinolin-6-yl)-2-hydroxybenzonitrile dimesylate] belongs “converted to Pattern A”; to `CS(=O)(=O)O.CS(=O)(=O)O.N#Cc1cccc(-c2ccc3ncc(-c4cc(F)cc(F)c4)c(N4CCC(N)CC4)c3c2)c1O` [Pattern H, 3-(4-(4-aminopiperidin-1-yl)-3-(3,5-difluorophenyl)quinolin-6-yl)-2-hydroxybenzonitrile dimesylate], “converted to Pattern I”; to `CS(=O)(=O)O.CS(=O)(=O)O.N#Cc1cccc(-c2ccc3ncc(-c4cc(F)cc(F)c4)c(N4CCC(N)CC4)c3c2)c1O` [Pattern D, 3-(4-(4-aminopiperidin-1-yl)-3-(3,5-difluorophenyl)quinolin-6-yl)-2-hydroxybenzonitrile dimesylate], “converted to Pattern A”.
For the compound `CS(=O)(=O)O.CS(=O)(=O)O.N#Cc1cccc(-c2ccc3ncc(-c4cc(F)cc(F)c4)c(N4CCC(N)CC4)c3c2)c1O` [Pattern M, 3-(4-(4-aminopiperidin-1-yl)-3-(3,5-difluorophenyl)quinolin-6-yl)-2-hydroxybenzonitrile dimesylate], the “XRPD pattern upon drying” value in data set [2] (setting [6]) is given as “lost crystallinity upon drying”.
Still for that read-out and setting: for `CS(=O)(=O)O.CS(=O)(=O)O.N#Cc1cccc(-c2ccc3ncc(-c4cc(F)cc(F)c4)c(N4CCC(N)CC4)c3c2)c1O` [Pattern N, 3-(4-(4-aminopiperidin-1-yl)-3-(3,5-difluorophenyl)quinolin-6-yl)-2-hydroxybenzonitrile dimesylate] the value was “stable upon drying”.

The values are drawn from patent US12617767B2, “Crystalline forms of somatostatin modulators” (Crinetics Pharmaceuticals, Inc., priority 2019, dated 2026).
